In series [1] the test system is HEK 293 cells. Put plainly: Cytotoxicity / cell death by light microscopy in transfected HEK 293 cells. The conditions noted are these: for Cytotoxicity / cell death (light microscopy): HEK 293 cells, increasing concentrations of the inhibitor. The class given is cell-based. The method, then: Tat up-regulates GFP expression (middle panels). […] Thus, a cytotoxic molecule down-regulates GFP without being a Tat inhibitor.
293 cells are transiently transfected with pPRIME-LTR-GFP: anti-RFP miRNA (p604.344 and p604.620), CMV-RFP and EF-1α-Tat (YU-2) vectors. Cells are treated with different concentrations of the SMI 24 h after transfection. GFP and RFP expression is recorded 24 h after vector transfection. LM, Light microscopy.
(§1) DRB (5, 6-dichloro-1-beta-D-ribofuranosylbenzimidazole) a small molecule inhibitor, blocks an essential cellular enzyme CDK9, a kinase, critical for general transcription of many genes and therefore is cytotoxic. […] The Tat inhibition potential as well as cytotoxicity of DRB at 3 different concentrations is tested in HEK 293 cells using plasmid combinations as defined in Table-2. Images of the cells are captured using light microscopy, GFP or RFP filters at 36 h. […] Thus, the GFP-based assay identifies false hits, but not the instant RFP-based assay.

Series [2] deals with T1, Tat (Human immunodeficiency virus type 1 group M subtype B, UniProt P35965). Put plainly: Tat-inducible GFP / anti-RFP shRNA reporter assay, transient transfection in HeLa cells. The class given is cell-based, HIV-1. The arrangement: The full-length Tat cDNA from molecular clone YU-2 (subtype-B) is made from cellular RNA of 293 cells; expressed in transfected cells; pcDNA3.1 CMV-Tat (YU-2) or EF-1α-Tat (YU-2) vector. Conditions: 25 μM, 24 h. The method, then:
HeLa cells are transiently transfected with pPRIME-LTR-GFP: anti-RFP miRNA (p604.344 and p604.620), CMV-RFP and EF-1α-Tat (YU-2) vectors. Cells are treated with 25 μM DRB. GFP and RFP expression is recorded 24 h after vector transfection.
(§2) Vector DNA Transfection: All the proof-of-the-concept assays embedded in this document are performed using the transient transfection method formats. Most of the experiments are done using host cells such as HEK293 cells and preferably the standard calcium transfection protocol. Further, few experiments are also performed using HeLa cells. A commercial lipid formulation is used for this and is used following the suppliers instructions.
The assay also identifies SMI which inhibit cellular factors needed for Tat. 5,6-Dichlorobenzimidazole Riboside (DRB) is a potent inhibitor of CDK9 which is a cellular factor necessary for Tat function. […] Thus the assay of the present disclosure also identify such SMI that have an indirect effect on Tat function.
Background: Reporter assays use an easily measured gene product as a stand-in for the process of interest.

For series [3], the target named is T1, Tat. Put plainly: Tat-inducible GFP / anti-RFP shRNA reporter assay, transient transfection in HEK293 cells. The class given is cell-based, HIV-1. Details: The full-length Tat cDNA from molecular clone YU-2 (subtype-B) is made from cellular RNA of 293 cells; expressed in transfected cells; host or cells: HEK293 (293) cells, transient transfection; pcDNA3.1 CMV-Tat (YU-2) or EF-1α-Tat (YU-2) vector. The method, then:
as §2
siRNA Transfection: Anti-Tat siRNA molecules are introduced into cells using a commercial lipid-nanoparticle formulation as per the instructions from the supplier.
Adding Tat Inhibitors to the Cell and Screening to Identify Anti-viral/Tat Molecules: The assays are performed using the following format although several variations are introduced depending on the need. • a) Cell Plating: Cells are plated in 96-well culture plates the previous evening and on the morning of the experiment, they are at 30-40% occupancy and in the logarithmic growth phase. • b) DNA Vector Transfection: A combination of 4 vectors is used in most of the assays. The total DNA concentration ranged from 1 to 2 μg per a 24-well plate or 100-200 ng per 96-well plate depending on the context. • 1. Anti-RFP siRNA vector (pPRIME-LTR-GFP: anti-RFP miRNA (p604.344):100-600 ng • 2. Anti-RFP siRNA vector (pPRIME-LTR-GFP: anti-RFP miRNA (p604.620): 100-600 ng • 3. CMV-Tat (YU-2) vector:50-200 ng • 4. CMV-RFP vector (pCMV-RFP-IRES-Puro) (FIGS. 21):50-200 ng
Cells are monitored for GFP or RFP expression after 24 h after subjected to an anti-Tat compound.
Anti-Tat Compound Treatment: A small molecule inhibitor (at concentrations mentioned in individual experiments above) or anti-Tat siRNA (20-100 ng per well) are used. The anti-Tat agent is used immediately after plasmid DNA transfection or after 12-24 h. Cells are removed from the wells by trypsinization and made into single cell suspension in phosphate buffered saline. The mean fluorescence intensity of the cells was determined using flow cytometry. Alternatively, cells were removed from the well using trypsinization and suspended in PBS. The intensity of the fluorescence was quantitatively determined using a standard fluorimeter. Fluorescent protein gene expression is measured at 24, 36, 48 and 72 h from vector transfection, at one time point or multiple time points.
as §1

The target of series [4] is T2, Tat (Human immunodeficiency virus type 1 group M subtype B, UniProt P04608).
T2 construct: host or cells: HeLa cells
T2 sequence (P04608 whole entry): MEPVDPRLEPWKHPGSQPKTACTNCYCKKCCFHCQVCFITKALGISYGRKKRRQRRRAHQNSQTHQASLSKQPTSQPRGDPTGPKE
The conditions noted are these: HeLa cells, increasing concentration; cited from earlier work.

[5] abbreviates: HEK 293 cells, with Tat, increasing/different concentrations of the inhibitor.

“Also recorded” adds a separate entry of the source.

T1 sequence (P35965 whole entry): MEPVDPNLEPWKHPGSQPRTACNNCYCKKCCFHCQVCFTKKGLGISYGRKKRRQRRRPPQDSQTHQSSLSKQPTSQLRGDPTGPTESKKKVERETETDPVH

In the case of `OC[C@H]1O[C@@H](n2cnc3cc(Cl)c(Cl)cc32)[C@H](O)[C@@H]1O` [DRB, 5,6-dichloro-1-beta-D-ribofuranosylbenzimidazole], the “Cytotoxicity / cell death (light microscopy)” value (from here on “Cytotoxicity / cell death”) in series [1] was “enhanced cell death with increasing concentrations; also recorded: increasing levels of cytotoxicity; also recorded: significant levels of cell death”. The GFP expression entry is “relative down regulation of GFP” in series [2] and “GFP expression also is reduced; also recorded: progressive reduction in GFP expression; also recorded: progressive down-regulation of GFP expression” in series [3] (setting [5]). Besides, the RFP expression result in series [2] is on record as “relieves Tat-mediated RFP suppression; also recorded: relieves RFP gene expression”; in series [3] (setting [5]) it was “should have been up-regulated, which is not the case here; also recorded: no concomitant up-regulation of RFP expression”.

Regarding `CN1CC[C@H](c2c(O)cc(O)c3c(=O)cc(-c4ccccc4Cl)oc23)[C@H](O)C1` [Flavipiridol], the “Cytotoxicity / cell death” value in series [1] is listed as “progressive increase in cytotoxicity”.

For the molecule `COc1ccc(C(=O)C2=C3OC(C)(C)[C@@H](CC=C(C)C)C[C@@]34C[C@@H](CC=C(C)C)C(C)(C)[C@@](CC=C(C)C)(C2=O)C4=O)cc1O` [LTK14], the “Cytotoxicity / cell death” value in series [1] is “progressively increased cell death”. Also, in series [3] (setting [5]), the GFP expression result is recorded as “down regulation of GFP” and the RFP expression entry is “not enhanced RFP expression”.

With `O=C1CN=C(c2ccc[nH]2)c2cc(Cl)ccc2N1` [R05-3335], the GFP expression result in series [4] was “GFP expression is down-regulated”.

As to `CC[C@H](CO)Nc1nc(NCc2ccccc2)c2ncn(C(C)C)c2n1` [Roscovitine], the Cytotoxicity result in series [1] (293 cells, 3 μM) is reported as “cytotoxicity”. Further, in series [3] (293 cells, 3 μM, 48 h), the GFP expression entry is reported as “reduced expression of GFP” and the RFP expression result is given as “not in enhanced expression of RFP”.

Turning to `COc1cccc2c1C(=O)c1c(O)c3c(c(O)c1C2=O)C[C@@](O)(C(C)=O)C[C@@H]3O[C@H]1C[C@H](NCc2ccc(CN[C@H]3C[C@H](O[C@H]4C[C@](O)(C(C)=O)Cc5c(O)c6c(c(O)c54)C(=O)c4c(OC)cccc4C6=O)O[C@@H](C)[C@H]3O)cc2)[C@H](O)[C@H](C)O1` [WP631], in series [1] (293 cells, WP631 treatment (100 nM)), the “Cytotoxicity (cell density under light microscopy)” value is recorded as “Low level cytotoxicity”. In addition, the “Cytotoxicity / cell death” value in series [1] was “toxic to the cell at higher concentrations; also recorded: causes apoptosis at higher concentrations”. The RFP expression result in series [3] (293 cells, 100 nM) is recorded as “partially relieves Tat-mediated inhibition of RFP”. For the same molecule, in series [3] (setting [5]), the GFP expression entry is reported as “marginally reduced GFP expression; also recorded: marginal down regulation of GFP” and the RFP expression entry was “small relief in RFP suppression is evident, this is not significant; also recorded: insignificant levels of up-regulation of RFP; also recorded: partially relieves RFP gene expression”.

The values above are taken from US8841121B2, “Vector, vector combinations, methods and kit thereof” (Jawaharlal Nehru Centre for Advanced Scientific Research, priority 2010, dated 2014).
